{"source": "patent US8481749B2", "about": "“N-(tetrazol-5-yl)- and N-(triazol-5-yl)arylcarboxamides and their use as herbicides” (Bayer Cropscience AG, priority 2010, dated 2013)"}
{"system": "Veronica persica", "test": "Pre-emergence herbicidal action against harmful plants", "type": "in vivo", "details": "504 h, application rate 80 g/ha, visual assessment after 3 weeks vs untreated controls (100%=plants have died, 0%=like control), read-out: herbicidal activity in percent against Veronica persica", "units": {"pest or weed control at 80 g/ha": "%"}}
{"compound": "CCn1ncnc1NC(=O)c1ccc(C(F)(F)F)c(S(C)(=O)=O)c1C", "note": "[Compound 2-148]", "pest or weed control at 80 g/ha": "≥ 80"}
{"compound": "CCSc1c(Cl)ccc(C(=O)Nc2nnnn2CC)c1C", "note": "[Compound 5-122]", "pest or weed control at 80 g/ha": "≥ 80"}
{"compound": "CCn1nnnc1NC(=O)c1ccc(Cl)c(S(=O)(=O)CC)c1C", "note": "[Compound 5-124]", "pest or weed control at 80 g/ha": "≥ 80"}
{"compound": "CCn1nnnc1NC(=O)c1ccc(S(C)(=O)=O)c(OC)c1C", "note": "[Compound 5-166]", "pest or weed control at 80 g/ha": "≥ 80"}
{"compound": "CCn1nnnc1NC(=O)c1ccc(C(F)(F)F)c(S(C)(=O)=O)c1C1CC1", "note": "[Compound 5-210]", "pest or weed control at 80 g/ha": "≥ 80"}
{"compound": "CCn1nnnc1NC(=O)c1ccc(S(C)(=O)=O)c(OC)c1Cl", "note": "[Compound 5-276]", "pest or weed control at 80 g/ha": "≥ 80"}
{"compound": "CCn1nnnc1NC(=O)c1ccc(C#N)c(SC)c1C", "note": "[Compound 5-392]", "pest or weed control at 80 g/ha": "≥ 80"}
{"compound": "CCCc1c(C(=O)Nc2nnnn2CC)ccc(Cl)c1[S+](C)[O-]", "note": "(stereo not drawn) [Compound 5-510]", "pest or weed control at 80 g/ha": "≥ 80"}
{"compound": "CCn1nnnc1NC(=O)c1ccc(S(C)(=O)=O)c(SC)c1C(F)(F)F", "note": "[Compound 5-597]", "pest or weed control at 80 g/ha": "≥ 80"}
{"compound": "CCn1nnnc1NC(=O)c1ccc(S(=O)(=O)CC)c(SC)c1C(F)(F)F", "note": "[Compound 5-598]", "pest or weed control at 80 g/ha": "≥ 80"}
{"compound": "CCn1nnnc1NC(=O)c1ccc(C)c(SC)c1Cl", "note": "[Compound 5-614]", "pest or weed control at 80 g/ha": "≥ 80"}
{"compound": "C#CCOc1c(S(C)(=O)=O)ccc(C(=O)Nc2nnnn2CC)c1Cl", "note": "[Compound 5-676]", "pest or weed control at 80 g/ha": "≥ 80"}
